Counter-ions that a name gives are not always drawn.
tested on: mice; assay: Neuropharmacological Assay (SmartCube); assay type: in vivo; conditions: i.p. 15 min before behavioral test; 3 doses, most efficacious dose(s) presented
Excerpt: Neurosci. […] As reported in Roberds, because psychiatric diseases generally result from disorders of cell-cell communication or circuitry, intact systems are useful in detecting improvement in disease-relevant endpoints. These endpoints are typically behavioral in nature, often requiring human observation and interpretation. To facilitate testing of multiple compounds for behavioral effects relevant to psychiatric disease, PsychoGenics, Inc. (Tarrytown, N.Y., “PGI”) developed SmartCube™, an automated system in which behaviors of compound-treated mice are captured by digital video and analyzed with computer algorithms. […] PGI Analytical Systems uses data from SmartCube™ to compare the behavioral signature of a test compound to a database of behavioral signatures obtained using a large set of diverse reference compounds. (The composition of the database as well as validation of the method is further described in Roberds). In this way, the neuropharmacological effects of a test compound can be predicted by similarity to major classes of compounds, such as antipsychotics, anxiolytics and antidepressants.
The SmartCube™ system produces an activity signature indicating the probability that the activity of the test compound at the administered dose matches a given class of neuropharmacological agents. (See, e.g., Roberds, FIGS. 2 and 3). The test compound is simultaneously compared against multiple classes of agents; thus, a separate probability is generated for each behavioral effect measured (e.g., anxiolytic activity, analgesic activity, etc.). In Table 2 and 2B, these probabilities are reported for each behavioral effect measured as follows:
where LOQ is the limit of quantification.
Provided compounds were dissolved in a mixture of Pharmasolve™ (N-methyl-2-pyrrolidone), polyethylene glycol and propylene glycol, and were injected i.p. 15 min. before the behavioral test. For each compound, injections were administered at 3 different doses. For each behavioral effect measured, results for the most efficacious dose(s) are presented.

| Structure (SMILES) | AD: ADHD (probability of class match) | AG: analgesic (probability of class match) | AX: anxiolytic (probability of class match) | CE: cognitive enhancer (probability of class match) | DP: anti-depressant (probability of class match) | HA: hallucinogen (probability of class match) | MS: mood stabilizer (probability of class match) | PS: anti-psychotic (probability of class match) | SD: sedative hypnotic (probability of class match) | UN: uncharacterized CNS activity (probability of class match) |
| --- | --- | --- | --- | --- | --- | --- | --- | --- | --- | --- |
| CN(CC1OCCn2nc3ccccc3c21)C1CC1 (stereo not shown) [Compound 22, N-((3,4-dihydro-1H-[1,4]oxazino[4,3-b]indazol-1-yl)methyl)-N-methylcyclopropanamine hydrogen chloride salt] | ++ (5%≦ ++ <25%) | + (LOQ≦ + <5%) | ++ (5%≦ ++ <25%) | + (LOQ≦ + <5%) | ++++ (50%≦ ++++) | ++ (5%≦ ++ <25%) | + (LOQ≦ + <5%) | + (LOQ≦ + <5%) | + (LOQ≦ + <5%) | ++ (5%≦ ++ <25%) |
| c1ccc2c3n(nc2c1)CCOC3CN1CCOCC1 (stereo not shown) [Compound 20, 1-(morpholinomethyl)-3,4-dihydro-1H-[1,4]oxazino[4,3-b]indazole hydrogen chloride salt] | + (LOQ≦ + <5%) | ++ (5%≦ ++ <25%) | +++ (25%≦ +++ <50%) | ++ (5%≦ ++ <25%) | ++ (5%≦ ++ <25%) | + (LOQ≦ + <5%) | + (LOQ≦ + <5%) | ++ (5%≦ ++ <25%) | + (LOQ≦ + <5%) | + (LOQ≦ + <5%) |
| c1ccc2c3n(nc2c1)CCOC3CNC1CCC1 (stereo not shown) [Compound 16, N-((3,4-dihydro-1H-[1,4]oxazino[4,3-b]indazol-1-yl)methyl) cyclobutanamine] | + (LOQ≦ + <5%) | + (LOQ≦ + <5%) | + (LOQ≦ + <5%) | + (LOQ≦ + <5%) | + (LOQ≦ + <5%) | + (LOQ≦ + <5%) | + (LOQ≦ + <5%) | + (LOQ≦ + <5%) | + (LOQ≦ + <5%) | + (LOQ≦ + <5%) |
| CN1CCC2(C1)OCCn1nc3ccccc3c12.Cl (stereo not shown) [Compound 23, 1′-methyl-3,4-dihydrospiro[[1,4]oxazino[4,3-b]indazole-1,3′-pyrrolidin]-1′-ium chloride] | + (LOQ≦ + <5%) | ++ (5%≦ ++ <25%) | ++++ (50%≦ ++++) | ++ (5%≦ ++ <25%) | ++ (5%≦ ++ <25%) | + (LOQ≦ + <5%) | + (LOQ≦ + <5%) | + (LOQ≦ + <5%) | + (LOQ≦ + <5%) | + (LOQ≦ + <5%) |
| CN(CC1OCCn2nc3ccccc3c21)C1CCC1.Cl (stereo not shown) [Compound 29, N-((3,4-dihydro-1H-[1,4]oxazino[4,3-b]indazol-1-yl)methyl)-N-methylcyclobutanaminium chloride] | + (LOQ≦ + <5%) | + (LOQ≦ + <5%) | ++ (5%≦ ++ <25%) | ++ (5%≦ ++ <25%) | +++ (25%≦ +++ <50%) | ++ (5%≦ ++ <25%) | + (LOQ≦ + <5%) | + (LOQ≦ + <5%) | + (LOQ≦ + <5%) | + (LOQ≦ + <5%) |
| CCN(C)C[C@H]1OCCn2nc3ccccc3c21.Cl [Compound 50, N—(((R)-3,4-dihydro-1H-[1,4]oxazino[4,3-b]indazol-1-yl)methyl)-N-methylethanaminium chloride] | ++ (5%≦ ++ <25%) | + (LOQ≦ + <5%) | +++ (25%≦ +++ <50%) | + (LOQ≦ + <5%) | ++++ (50%≦ ++++) | ++ (5%≦ ++ <25%) | + (LOQ≦ + <5%) | + (LOQ≦ + <5%) | + (LOQ≦ + <5%) | + (LOQ≦ + <5%) |
| Cl.c1ccc2c3n(nc2c1)CCOC3[C@H]1CNCCO1 (stereo partly drawn) [Compound 42, (2R)-2-(3,4-dihydro-1H-[1,4]oxazino[4,3-b]indazol-1-yl)morpholin-4-ium chloride] | + (LOQ≦ + <5%) | + (LOQ≦ + <5%) | + (LOQ≦ + <5%) | + (LOQ≦ + <5%) | + (LOQ≦ + <5%) | + (LOQ≦ + <5%) | + (LOQ≦ + <5%) | + (LOQ≦ + <5%) | + (LOQ≦ + <5%) | + (LOQ≦ + <5%) |
| c1ccc2c3n(nc2c1)CCOC3CN1CC1 (stereo not shown) [Compound 63, 1-(aziridin-1-ylmethyl)-3,4-dihydro-1H-[1,4]oxazino[4,3-b]indazole] | + (LOQ≦ + <5%) | +++ (25%≦ +++ <50%) | + (LOQ≦ + <5%) | + (LOQ≦ + <5%) | ++ (5%≦ ++ <25%) | + (LOQ≦ + <5%) | + (LOQ≦ + <5%) | + (LOQ≦ + <5%) | ++ (5%≦ ++ <25%) | + (LOQ≦ + <5%) |
| CNC[C@@H]1OCCn2nc3ccccc3c21 [Compound 1, (S)-(3,4-dihydro-1H-[1,4]oxazino[4,3-b]indazol-1-yl)-N-methylmethanaminium chloride] | + (LOQ≦ + <5%) | + (LOQ≦ + <5%) | ++ (5%≦ ++ <25%) | + (LOQ≦ + <5%) | + (LOQ≦ + <5%) | + (LOQ≦ + <5%) | + (LOQ≦ + <5%) | + (LOQ≦ + <5%) | + (LOQ≦ + <5%) | + (LOQ≦ + <5%) |
| CNCC1OCCn2nc3ccc(F)cc3c21 (stereo not shown) [Compound 7, 1-(9-fluoro-3,4-dihydro-1H-[1,4]oxazino[4,3-b]indazol-1-yl)-N-methylmethanaminium chloride] | + (LOQ≦ + <5%) | ++ (5%≦ ++ <25%) | + (LOQ≦ + <5%) | + (LOQ≦ + <5%) | ++++ (50%≦ ++++) | + (LOQ≦ + <5%) | + (LOQ≦ + <5%) | + (LOQ≦ + <5%) | + (LOQ≦ + <5%) | + (LOQ≦ + <5%) |
| Cl.c1ccc2c3n(nc2c1)CCO[C@H]3[C@@H]1COCCN1 (racemic) [Compound 46, (+/−)—(S)-3-((S)-3,4-dihydro-1H-[1,4]oxazino[4,3-b]indazol-1-yl)morpholin-4-ium chloride] | + (LOQ≦ + <5%) | ++ (5%≦ ++ <25%) | ++ (5%≦ ++ <25%) | + (LOQ≦ + <5%) | + (LOQ≦ + <5%) | + (LOQ≦ + <5%) | + (LOQ≦ + <5%) | ++ (5%≦ ++ <25%) | ++ (5%≦ ++ <25%) | ++ (5%≦ ++ <25%) |

same assay, conditions: i.p. 15 min before behavioral test; 3 doses, most efficacious dose(s) presented

| Structure (SMILES) | XG: anxiogenic (probability of class match) |
| --- | --- |
| CN(CC1OCCn2nc3ccccc3c21)C1CC1 (stereo not shown) [Compound 22, N-((3,4-dihydro-1H-[1,4]oxazino[4,3-b]indazol-1-yl)methyl)-N-methylcyclopropanamine hydrogen chloride salt] | + (LOQ≦ + <5%) |
| c1ccc2c3n(nc2c1)CCOC3CN1CCOCC1 (stereo not shown) [Compound 20, 1-(morpholinomethyl)-3,4-dihydro-1H-[1,4]oxazino[4,3-b]indazole hydrogen chloride salt] | + (LOQ≦ + <5%) |
| c1ccc2c3n(nc2c1)CCOC3CNC1CCC1 (stereo not shown) [Compound 16, N-((3,4-dihydro-1H-[1,4]oxazino[4,3-b]indazol-1-yl)methyl) cyclobutanamine] | + (LOQ≦ + <5%) |
| CN1CCC2(C1)OCCn1nc3ccccc3c12.Cl (stereo not shown) [Compound 23, 1′-methyl-3,4-dihydrospiro[[1,4]oxazino[4,3-b]indazole-1,3′-pyrrolidin]-1′-ium chloride] | + (LOQ≦ + <5%) |
| CN(CC1OCCn2nc3ccccc3c21)C1CCC1.Cl (stereo not shown) [Compound 29, N-((3,4-dihydro-1H-[1,4]oxazino[4,3-b]indazol-1-yl)methyl)-N-methylcyclobutanaminium chloride] | + (LOQ≦ + <5%) |
| CCN(C)C[C@H]1OCCn2nc3ccccc3c21.Cl [Compound 50, N—(((R)-3,4-dihydro-1H-[1,4]oxazino[4,3-b]indazol-1-yl)methyl)-N-methylethanaminium chloride] | + (LOQ≦ + <5%) |
| Cl.c1ccc2c3n(nc2c1)CCOC3[C@H]1CNCCO1 (stereo partly drawn) [Compound 42, (2R)-2-(3,4-dihydro-1H-[1,4]oxazino[4,3-b]indazol-1-yl)morpholin-4-ium chloride] | + (LOQ≦ + <5%) |
| c1ccc2c3n(nc2c1)CCOC3CN1CC1 (stereo not shown) [Compound 63, 1-(aziridin-1-ylmethyl)-3,4-dihydro-1H-[1,4]oxazino[4,3-b]indazole] | + (LOQ≦ + <5%) |
| CNC[C@@H]1OCCn2nc3ccccc3c21 [Compound 1, (S)-(3,4-dihydro-1H-[1,4]oxazino[4,3-b]indazol-1-yl)-N-methylmethanaminium chloride] | + (LOQ≦ + <5%) |
| CNCC1OCCn2nc3ccc(F)cc3c21 (stereo not shown) [Compound 7, 1-(9-fluoro-3,4-dihydro-1H-[1,4]oxazino[4,3-b]indazol-1-yl)-N-methylmethanaminium chloride] | + (LOQ≦ + <5%) |
| Cl.c1ccc2c3n(nc2c1)CCO[C@H]3[C@@H]1COCCN1 (racemic) [Compound 46, (+/−)—(S)-3-((S)-3,4-dihydro-1H-[1,4]oxazino[4,3-b]indazol-1-yl)morpholin-4-ium chloride] | + (LOQ≦ + <5%) |

Reference: patent US9758529B2, “Fused dihydro-4H-pyrazolo[5,1-C][1,4]oxazinyl compounds and analogs for treating CNS disorders” (Sunovion Pharmaceuticals Inc., priority 2015, dated 2017)
